In one experiment the target is Pim-1 (Homo sapiens (Human), UniProt P11309). The experiment can be described thus: Pim-Mn enzyme assay (HTRF, 384-well), Pim-1. Type of experiment: biochemical. As to conditions: read-out: Pim-1-Mn IC50 IP. A general note: In TR-FRET formats the signal depends on donor and acceptor labels being close together.
Another experiment concerns the target Pim-2 (Homo sapiens (Human), UniProt Q9P1W9). The experiment can be described thus: Pim-Mn enzyme assay (HTRF, 384-well), Pim-2. It counts as biochemical. As to conditions: read-out: Pim-2-Mn IC50 IP.
[1] abbreviates: Pim-1 enzyme 5 pM, ATP 1.5 μM, BAD (S112) 0.5 μM, HTRF, 22-point curve.
[2] abbreviates: Pim-2 enzyme 0.5 pM, ATP 1.5 μM, BAD (S112) 0.5 μM, HTRF, 22-point curve.

Read-outs that look alike come from different tables or passages of the source.

Pim-2, sequence (Q9P1W9 whole entry): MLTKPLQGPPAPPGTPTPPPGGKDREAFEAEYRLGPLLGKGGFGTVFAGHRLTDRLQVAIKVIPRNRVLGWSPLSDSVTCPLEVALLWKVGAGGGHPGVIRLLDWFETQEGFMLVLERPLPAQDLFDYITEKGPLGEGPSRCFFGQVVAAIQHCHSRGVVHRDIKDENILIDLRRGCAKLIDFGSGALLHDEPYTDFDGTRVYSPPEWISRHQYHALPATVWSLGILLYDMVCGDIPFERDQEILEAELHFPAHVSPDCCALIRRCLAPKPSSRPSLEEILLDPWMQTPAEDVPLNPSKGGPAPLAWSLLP
Pim-1, sequence (P11309 whole entry): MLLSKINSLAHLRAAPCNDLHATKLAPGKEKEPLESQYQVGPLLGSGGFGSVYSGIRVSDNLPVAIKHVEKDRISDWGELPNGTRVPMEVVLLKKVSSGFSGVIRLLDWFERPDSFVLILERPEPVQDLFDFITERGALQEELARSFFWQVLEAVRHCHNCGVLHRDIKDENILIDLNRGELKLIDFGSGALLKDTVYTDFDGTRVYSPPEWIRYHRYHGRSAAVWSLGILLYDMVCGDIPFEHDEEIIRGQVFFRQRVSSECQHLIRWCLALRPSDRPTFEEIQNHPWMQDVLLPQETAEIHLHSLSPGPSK

In the case of `Cc1nc2cccc(-c3cc4c([nH]3)CCNC4=O)c2nc1NC1CN(C(=O)OC(C)(C)C)C1` [Example 149, tert-butyl 3-((3-methyl-8-(4-oxo-4,5,6,7-tetrahydro-1H-pyrrolo[3,2-c]pyridin-2-yl)quinoxalin-2-yl)amino)azetidine-1-carboxylate], the half-inhibitory concentration (IC50) (as a rule, the concentration needed to halve the response being measured) at Pim-1 (setting [1]) was 0.02 µM; on Pim-2 (setting [2]), 0.033 µM.
Regarding `Cc1nc2cccc(-c3cc4c([nH]3)CCNC4=O)c2nc1NC1CNC1` [Example 150, 2-(3-(azetidin-3-ylamino)-2-methylquinoxalin-5-yl)-6,7-dihydro-1H-pyrrolo[3,2-c]pyridin-4(5H)-one], the IC50 on Pim-1 (setting [1]) was found to be 0.002 µM; on Pim-2 (setting [2]) it was 0.0059 µM.
Take `Cc1nc2cccc(-c3cc4c([nH]3)CCNC4=O)c2nc1OC1CCC1` [Example 151, 2-(3-cyclobutoxy-2-methylquinoxalin-5-yl)-6,7-dihydro-1H-pyrrolo[3,2-c]pyridin-4(5H)-one]: the values for the IC50 at Pim-1 (setting [1]) and at Pim-2 (setting [2]) were 0.0182 µM and 0.0123 µM, respectively.
In the same order, the values of `Cc1nc2cccc(-c3cc4c([nH]3)CCNC4=O)c2nc1OCC(C)(C)C` [Example 152, 2-(2-methyl-3-(neopentyloxy)quinoxalin-5-yl)-6,7-dihydro-1H-pyrrolo[3,2-c]pyridin-4(5H)-one] are 0.0542 µM and 0.0447 µM.
In the same order, the values of `CCCCNc1nc2c(-c3cc4c([nH]3)CCNC4=O)cccc2nc1C` [Example 159, 2-(3-(butylamino)-2-methylquinoxalin-5-yl)-6,7-dihydro-1H-pyrrolo[3,2-c]pyridin-4(5H)-one] are 0.0031 µM and 0.0017 µM.
In the same order, the values of `Cc1nc2cccc(-c3cc4c([nH]3)CCNC4=O)c2nc1N[C@H]1CC[C@H](O)CC1` [Example 206, 2-(3-((trans-4-hydroxycyclohexyl)amino)-2-methylquinoxalin-5-yl)-6,7-dihydro-1H-pyrrolo[3,2-c]pyridin-4(5H)-one] are 0.0027 µM and 0.004 µM.
With `CC(C)(C)Nc1nc2c(-c3cc4c([nH]3)CCNC4=O)cccc2nc1C(F)(F)F` [Example 224, 2-(3-(tert-butylamino)-2-(trifluoromethyl)quinoxalin-5-yl)-6,7-dihydro-1H-pyrrolo[3,2-c]pyridin-4(5H)-one], the IC50 at Pim-1 (setting [1]) worked out at 0.0042 µM; at Pim-2 (setting [2]), 0.0028 µM.
Take `Cc1nc2cccc(-c3cc4c([nH]3)CCNC4=O)c2nc1NS(C)(=O)=O` [Example 240, N-(3-methyl-8-(4-oxo-4,5,6,7-tetrahydro-1H-pyrrolo[3,2-c]pyridin-2-yl)quinoxalin-2-yl)methanesulfonamide 2,2,2-trifluoroacetate]: the IC50 at Pim-1 stood at 0.0875 µM; on Pim-2, 0.0096 µM.
Take `CC(=O)N1CCC[C@@H](Nc2nc3c(-c4cc5c([nH]4)CCNC5=O)cccc3nc2C)C1` [Example 241, 2-(3-(((3R)-1-acetyl-3-piperidinyl)amino)-2-methyl-5-quinoxalinyl)-1,5,6,7-tetrahydro-4H-pyrrolo[3,2-c]pyridin-4-one]: the concentration for half-maximal inhibition (IC50) on Pim-1 (setting [1]) worked out at 0.0437 µM; at Pim-2 (setting [2]), 0.0684 µM.
Take `CC(=O)N1CCC[C@H](Nc2nc3c(-c4cc5c([nH]4)CCNC5=O)cccc3nc2C)C1` [Example 242, 2-(3-(((3S)-1-acetyl-3-piperidinyl)amino)-2-methyl-5-quinoxalinyl)-1,5,6,7-tetrahydro-4H-pyrrolo[3,2-c]pyridin-4-one]: the results for the IC50 at Pim-1 (setting [1]) and at Pim-2 (setting [2]) were 0.129 µM and 0.137 µM, respectively.
In the same order, the values of `Cc1nc2cccc(-c3cc4c([nH]3)CCNC4=O)c2nc1NC1CN(C)C1` [Example 243, 2-(2-methyl-3-((1-methyl-3-azetidinyl)amino)-5-quinoxalinyl)-1,5,6,7-tetrahydro-4H-pyrrolo[3,2-c]pyridin-4-one] are 0.853 µM and 1.05 µM.
In the same order, the values of `Cc1nc2cccc(-c3cc4c([nH]3)CCNC4=O)c2nc1NC(C)(C)C(F)(F)F` [Example 254, 2-(2-methyl-3-((1,1,1-trifluoro-2-methylpropan-2-yl)amino)quinoxalin-5-yl)-6,7-dihydro-1H-pyrrolo[3,2-c]pyridin-4(5H)-one] are 0.00267 µM and 0.00224 µM.

Values taken from patent US9394297B2, “Amides as pim inhibitors” (AMGEN INC., priority 2012, dated 2016).
